In patent US20050100555A1, “Homing peptides” (KING'S COLLEGE LONDON An Institute Incorporated by Royal …, priority 2001, published 2005):
Entries after “also recorded” stand apart in the source; their conditions may differ. No end group written: not given here.

Key:
[1] = test system: human synovium and skin grafts (OA patient); conditions: OA synovium and skin double transplants, 15 min recirculation
Description: To assess whether the synovial homing properties were due to the intrinsic characteristics of the synovium or related to the disease status (e.g. RA vs OA), pooled clones recovered from the last round of in vivo selection (3rd and 4th round of the experiments described above) were tested in recirculation studies in vivo using SCID animals double transplanted with skin and human synovium from a patient with OA. As previously, equivalent amounts of strep-clone-1 phage were injected intravenously into control animals.

human synovial grafts [2] = conditions: 1×10^11 pfu i.v., double transplanted RA synovium and skin
Description: Selection in vivo of synovial specific phage. Synovial homing phage were isolated by 3-4 cycles of enrichment in SCID mice transplanted with human tissues at 4-6 weeks of age. Four weeks post-transplantation the pep-PDL library (1×10^11 pfu in 200 μL saline final volume) was injected into the tail vein of anaesthetized animals. After 15 minutes (in vivo phage circulation time), while under deep/terminal anaesthesia (Sagatal, 5 μg/mouse, Rhone Merieux, France) the mice were perfused via the left ventricle with approximately 50-100 mL of saline to ensure phage clearance from the blood pool. Grafts and various mouse organs were then extracted and divided into two aliquots, weighed and processed as necessary for phage recovery and histological analysis. The aliquot assigned for immunohistology was embedded in Optimal Cutting Temperature compound (OCT, Miles, Calif.), snap frozen in liquid nitrogen cooled isopentane (BDH) and stored at −70° C. until analysis. The aliquot used for phage recovery was washed three times in TBS (150 mM NaCl, 50 nm Tris, pH7.4, Sigma, Poole, UK) then homogenized in 1 ml of TBS containing protease inhibitor cocktail (Sigma). […] After a 37° C. overnight incubation the peptide phage, appearing as blue plaques, were counted and the yield of phage localising to each individual tissue determined. […]

human synovial grafts [3] = experiment: Synovial homing of single phage clones in SCID mice transplanted with human synovium; assay type: in vivo; conditions: 1×10^11 pfu i.v., 15 minutes recirculation; for localization of phage clone to synovial grafts in comparison to strep-clone-1 phage control: SCID mice with human synovium grafts
Description: (§1) Selection in vivo of synovial specific phage.
Confirmation of synovial homing specificity in single phage clones displaying consensus motifs. 1×10^11 pfu (200 μL saline fmal volume) of three single phage clones (1.23, 2.10 and 3.1) displaying consensus motifs or the strep-clone-1 phage control were and injected intravenously in separate animals transplanted with human synovium as described in ‘Selection in vivo ofsynovial specific phage’. The number of study and control clone phage localising to synovial grafts was determined as described in the same section.

[4] = test system: human synovial grafts (cognate synovial MVE ligand); experiment: Competitive localisation to human synovial grafts of synthetic biotinylated peptide against parent 3.1 phage clone; assay type: in vivo; conditions: for effect on graft localisation of the 3.1 phage clone: 50, 250 and 500 μg/mouse with 3.1 phage clone
Description: as §1
(§2) Competitive localisation to human synovial grafts of synthetic biotinylated peptide […] against the parent 3.1 phage clone. SCID mice were transplanted with human synovial tissue and injected intravenously, as describe above for the in vivo selection experiments, with 1×10^11 tpfu of 3.1 phage clone in presence or absence of increasing concentrations of the biotinylated CKSTHRDLC synthetic peptide (50, 250 and 500 μg/mouse in 200 μL dose volume) or the biotinylated CGTWSHPQC synthetic peptide control. Controls also included animals injected with 1×10^11 pfu of strep-clone-1 or biotin alone. After 15 minutes circulation time, mice were perfused and the number of phage in the transplants determined as described above. Histological analysis was performed as described below.

[5] = test system: human microvascular endothelium in synovial grafts; experiment: Assessment of graft localization of biotinylated peptides (ABC-AP immunohistology); assay type: in vivo; conditions: for localisation of biotinylated peptide to synovial grafts (immunoreactivity): 500 μg/mouse with 3.1 phage clone, ABC-AP, Vector Red
Description: as §2
Assessment of graft localization of biotinylated peptides. The graft localisation of the biotinylated CKSTHRDLC synthetic peptide was assessed by using the alkaline phosphatase avidin biotin complex (ABC-AP) detection system (Dako, UK) and visualised by Vector Red substrate (Novacastra, UK).

murine kidney = experiment: Phage recovery from murine kidney in the competitive localisation experiment; assay type: in vivo, mouse; conditions: with or without study or control peptide
Description: as §1, §2

Substance | localization of phage clone to synovial grafts in comparison to strep-clone-1 phage control (human synovial grafts [3]) | effect on graft localisation of the 3.1 phage clone [4] | localisation of biotinylated peptide to synovial grafts (immunoreactivity) [5] | other results
C-G-T-W-S-H-P-Q-C [strep-clone-1] | – | – | – | number of phage recovered from synovial grafts versus skin grafts [1]: virtually the same; localisation of phage to synovial grafts, skin grafts and mouse kidney (human synovial grafts [2]): comparable low levels of localisation in all three tissues
CDRLNHQFC [2.10] | significantly greater localization | – | – | –
CGTWSHPQC (cysteine pairing not given here; also: biotinylated, site not given here) [reference compound] | – | no significant effect | no specific immunoreactivity | –
CKSTHDRLC (not fully specified; cysteine pairing not given here; also: biotinylated, site not given here) | – | dramatically inhibits in a dose dependent fashion | strongly localises in vivo to synovial grafts | inhibition of graft localisation of the parent 3.1 phage clone ([4]; at maximal dose (500 μg/mouse i.v.), 15 minutes circulation): over 80%; site of peptide binding within synovial grafts (double staining with anti-human vWf-FITC) ([5]; 500 μg/mouse): specific immunoreactivity co-localising with human vasculature; also recorded: binds principally to human microvascular endothelium
CKSTHDRLC [3.1] | significantly greater localization | – | – | graft localisation relative to strep-clone-1 control ([4]; phage alone, 15 minutes circulation): approximately nine times more; increase of synovial graft localization over the control strep-clone-1 phage (human synovial grafts [3]): approximately 10 fold; level of phage localisation to murine kidney (murine kidney): only minimal ‘background’ localisation
CTHSSATQC [1.23] | significantly greater localization | – | – | –
